From patent US20210214375A1 (LUNDBECK LA JOLLA RESEARCH CENTER, INC., priority 2017, published 2021) come the findings set out here.

Like-named read-outs stand apart in the source and are kept apart here. A value given as a limit tells only on which side of the number the result lay.

Test [1] concerns the target T1, MAGL (Homo sapiens, UniProt Q99685).
T1 construct: Proteomes (human prefrontal cortex or cell membrane fractions); from tissue
T1 sequence (Q99685 1-303): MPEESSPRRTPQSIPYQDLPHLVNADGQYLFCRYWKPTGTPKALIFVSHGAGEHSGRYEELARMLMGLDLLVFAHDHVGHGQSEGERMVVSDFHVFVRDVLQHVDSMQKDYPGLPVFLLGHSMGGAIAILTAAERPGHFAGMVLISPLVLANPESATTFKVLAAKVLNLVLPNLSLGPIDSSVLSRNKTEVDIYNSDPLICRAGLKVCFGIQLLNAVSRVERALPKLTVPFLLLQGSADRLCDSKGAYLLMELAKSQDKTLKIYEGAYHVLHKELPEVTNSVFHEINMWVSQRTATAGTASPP
As to the kind of experiment: In vitro competitive activity-based protein profiling (gel-based, FP-Rh or HT-01 probe). It counts as biochemical. Summed up: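 Human prefrontal cortex or cell membrane proteomes (1.0 mg/mL protein) preincubated with varying inhibitor concentrations 30 min at 37° C. FP-Rh or HT-01 probe (1.0 μL of 50 μM stock) then added for 30 min at room temperature; reactions quenched with SDS loading buffer and resolved by SDS-PAGE.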

The target of test [2] is T2, MAGL (Mus musculus, UniProt O35678).
T2 construct: from tissue; host or cells: brain of wild-type C57Bl/6J mice
T2 sequence (O35678 1-303): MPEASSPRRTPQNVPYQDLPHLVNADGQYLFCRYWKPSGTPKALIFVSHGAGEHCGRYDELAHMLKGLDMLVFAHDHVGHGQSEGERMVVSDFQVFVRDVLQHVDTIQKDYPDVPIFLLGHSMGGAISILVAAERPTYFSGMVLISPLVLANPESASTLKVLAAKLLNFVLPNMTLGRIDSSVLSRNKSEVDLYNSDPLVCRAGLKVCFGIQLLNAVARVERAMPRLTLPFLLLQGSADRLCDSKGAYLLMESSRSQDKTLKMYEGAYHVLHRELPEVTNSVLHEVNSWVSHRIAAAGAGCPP
As to the kind of experiment: Mouse brain proteomes from inhibitor treated mice (oral gavage, brain proteomes analyzed 4 h after administration). It counts as in vivo, mouse (C57Bl/6J). Conditions: brain proteome 4 h after administration, read-out: % Inh 5 mg/kg MGLL (Mouse). The procedure: Compounds are tested to assess their MAGL and serine hydrolase activity using the following in vitro and in vivo assays.
Preparation of Mouse Brain Proteomes from Inhibitor Treated Mice.
Inhibitors were administered to wild-type C57Bl/6J by oral gavage in a vehicle of polyethylene glycol. Each animal was sacrificed 4 h following administration and brain proteomes were prepared and analyzed according to previously established methods (See Niphakis, M. J., et al. (2011) ACS Chem. Neurosci. and Long, J. Z., et al. Nat. Chem. Biol. 5:37-44).

Setting [3] is: PC3 proteome, read-out: IC50 MGLL PC3 (Human).
The mark [4] stands for this setting: PFC (prefrontal cortex) proteome.

In the case of `O=C(OC(C(F)(F)F)C(F)(F)F)N1CCC2(CCCN2Cc2cc(Cl)cc(C3(C(=O)O)CCCC3)c2)CC1` [Example 134, 1-{3-Chloro-5-[(8-{[(1,1,1,3,3,3-hexafluoropropan-2-yl)oxy]carbonyl}-1,8-diazaspiro[4.5]decan-1-yl)methyl]phenyl} cyclopentane-1-carboxylic acid], the IC50 at MAGL [1] (setting [3]) is less than 100 nM. Also, the “% Inh MGLL PFC (Human, μM)” value at MAGL [1] (setting [4]) is recorded as “### (### is ≥ 75%)”. Besides, the inhibition at 5 mg/kg at MAGL [2] is no less than 75%.
For the compound `CN(Cc1ccc(C(F)(F)F)cc1CN1CCC(C(=O)O)CC1)C1(C)CCN(C(=O)OC(C(F)(F)F)C(F)(F)F)CC1` [Example 137, 1-(2-(((1-(((1,1,1,3,3,3-Hexafluoropropan-2-yl)oxy)carbonyl)-4-methylpiperidin-4-yl)(methyl)amino)methyl)-5-(trifluoromethyl)benzyl)piperidine-4-carboxylic acid], on MAGL [1] (setting [3]), the IC50 is less than 100 nM. Also, the “% Inh MGLL PFC (Human, μM)” value on MAGL [1] (setting [4]) was “### (### is ≥ 75%)”. Further, the inhibition at 5 mg/kg on MAGL [2] is no less than 75%.
In the case of `CN(Cc1cc(N2CCOC(C)(C(=O)O)C2)cc(C(F)(F)F)c1)C1(C)CCN(C(=O)OC(C(F)(F)F)C(F)(F)F)CC1` (centres unmarked) [Example 139], the IC50 on MAGL [1] (setting [3]) was less than 100 nM; at MAGL [1] (PFC (prefrontal cortex) proteome, read-out: IC50 MGLL PFC (Human)), less than 100 nM. In addition, the inhibition at 5 mg/kg at MAGL [2] is no more than 25%.
`CN(Cc1ccccc1C1(C(=O)O)CCCC1)C1(C)CCN(C(=O)OC(C(F)(F)F)C(F)(F)F)CC1` [Example 141]: the IC50 at MAGL [1] (setting [3]) is less than 100 nM. For the same compound, at MAGL [1] (setting [4]), the “% Inh MGLL PFC (Human, μM)” value is given as “### (### is ≥ 75%)”. Further, the inhibition at 5 mg/kg at MAGL [2] is no less than 75%.
`CN(Cc1ccc(Cl)cc1C1(C(=O)O)CCCC1)C1(C)CCN(C(=O)OC(C(F)(F)F)C(F)(F)F)CC1` [Example 142, 1-(5-Chloro-2-{[(1-{[(1,1,1,3,3,3-hexafluoropropan-2-yl)oxy]carbonyl}-4-methylpiperidin-4-yl)(methyl)amino]methyl}phenyl) cyclopentane-1-carboxylic acid]: at MAGL [1] (setting [3]), the IC50 is less than 100 nM. Moreover, the “% Inh MGLL PFC (Human, μM)” value at MAGL [1] (setting [4]) was “### (### is ≥ 75%)”. The inhibition at 5 mg/kg on MAGL [2] is no less than 75%.
For `CN(Cc1ccc(F)cc1C1(C(=O)O)CCCC1)C1(C)CCN(C(=O)OC(C(F)(F)F)C(F)(F)F)CC1` [Example 143, 1-(5-Fluoro-2-{[(1-{[(1,1,1,3,3,3-hexafluoropropan-2-yl)oxy]carbonyl}-4-methylpiperidin-4-yl)(methyl)amino]methyl}phenyl) cyclopentane-1-carboxylic acid] the same measures were less than 100 nM, “### (### is ≥ 75%)” and no less than 75%.
Take `CC(C)(C#Cc1c(F)cccc1CN1CCCC12CCN(C(=O)OC(C(F)(F)F)C(F)(F)F)CC2)C(=O)O` [Example 147, 4-{2-Fluoro-6-[(8-{[(1,1,1,3,3,3-hexafluoropropan-2-yl)oxy]carbonyl}-1,8-diazaspiro[4.5]decan-1-yl)methyl]phenyl]-2,2-dimethylbut-3-ynoic acid]: the IC50 at MAGL [1] (setting [3]) was less than 100 nM. Moreover, at MAGL [1] (setting [4]), the “% Inh MGLL PFC (Human, μM)” value is reported as “### (### is ≥ 75%)”. The inhibition at 5 mg/kg on MAGL [2] is no less than 75%.
For the compound `O=C(O)CN1CCC2(CCN(c3cc(C(F)(F)F)ccc3CN3CCCC34CCN(C(=O)OC(C(F)(F)F)C(F)(F)F)CC4)CC2)C1` [Example 153, 2-(8-(2-((8-(((1,1,1,3,3,3-Hexafluoropropan-2-yl)oxy)carbonyl)-1,8-diazaspiro[4.5]decan-1-yl)methyl)-5-(trifluoromethyl)phenyl)-2,8-diazaspiro[4.5]decan-2-yl)acetic acid], at MAGL [1] (setting [3]), the IC50 is less than 100 nM. On MAGL [2], the inhibition at 5 mg/kg is no more than 25%.
For the compound `O=C(O)CN1CCC2(CC1)CCN(c1cc(C(F)(F)F)ccc1CN1CCCC13CCN(C(=O)OC(C(F)(F)F)C(F)(F)F)CC3)C2` [Example 154, 2-(2-(2-((8-(((1,1,1,3,3,3-Hexafluoropropan-2-yl)oxy)carbonyl)-1,8-diazaspiro[4.5]decan-1-yl)methyl)-5-(trifluoromethvl)phenyl)-2,8-diazaspiro[4.5]decan-8-yl)acetic acid], the IC50 at MAGL [1] (setting [3]) was less than 100 nM. At MAGL [2], the inhibition at 5 mg/kg is no more than 25%.
For the compound `O=C(O)CN1CC2CN(c3cc(C(F)(F)F)ccc3CN3CCCC34CCN(C(=O)OC(C(F)(F)F)C(F)(F)F)CC4)CC2C1` (centres unmarked) [Example 155], the IC50 at MAGL [1] (setting [3]) is less than 100 nM. Moreover, the inhibition at 5 mg/kg at MAGL [2] is no more than 25%.
For `O=C(O)CN1CCC2(CC1)CN(c1cc(C(F)(F)F)ccc1CN1CCCC13CCN(C(=O)OC(C(F)(F)F)C(F)(F)F)CC3)C2` [Example 156, 2-(2-(2-((8-(((1,1,1,3,3,3-Hexafluoropropan-2-yl)oxy)carbonyl)-1,8-diazaspiro[4.5]decan-1-yl)methyl)-5-(trifluoromethyl)phenyl)-2,7-diazaspiro[3.5]nonan-7-yl)acetic acid] the same measures were less than 100 nM and no more than 25%.
The matching figures for `O=C(O)CN1CC2(CCN(c3cc(C(F)(F)F)ccc3CN3CCCC34CCN(C(=O)OC(C(F)(F)F)C(F)(F)F)CC4)CC2)C1` [Example 157, 2-(7-(2-((8-(((1,1,1,3,3,3-Hexafluoropropan-2-yl)oxy)carbonyl)-1,8-diazaspiro[4.5]decan-1-yl)methyl)-5-(trifluoromethyl)phenyl)-2,7-diazaspiro[3.5]nonan-2-yl)acetic acid]: less than 100 nM and no more than 25%.
For `O=C(O)CN1CC2(CCN(c3cc(CN4CCCC45CCN(C(=O)OC(C(F)(F)F)C(F)(F)F)CC5)cc(C(F)(F)F)c3)CC2)C1` [Example 158, 2-(7-(3-((8-(((1,1,1,3,3,3-Hexafluoropropan-2-yl)oxy)carbonyl)-1,8-diazaspiro[4.5]decan-1-yl)methyl)-5-(trifluoromethyl)phenyl)-2,7-diazaspiro[3.5]nonan-2-yl)acetic acid], at MAGL [1] (setting [3]), the IC50 is less than 100 nM. In addition, at MAGL [2], the inhibition at 5 mg/kg is no more than 25%.
Take `O=C(O)C1CCN(c2c(Cl)cccc2CN2CCC3(CC2)CCN(C(=O)OC(C(F)(F)F)C(F)(F)F)C3)CC1` [Example 218, 1-(2-Chloro-6-((2-(((1,1,1,3,3,3-hexafluoropropan-2-yl)oxy)carbonyl)-2,8-diazaspiro[4.5]decan-8-yl)methyl)phenyl) piperidine-4-carboxylic acid]: the IC50 on MAGL [1] (setting [3]) was less than 100 nM. Also, the inhibition at 5 mg/kg at MAGL [2] is no less than 75%.
